What all share (format): in vivo
The test system of data set [1] is Beet Armyworm (Spodoptera exigua, LAPHEG). Description: Bioassay on Beet Armyworm (BAW), 128-well diet tray assay. The note with it: 168 h, 50 μg/cm^2 on artificial diet, second instar larvae, five to seven days, 25° C., read-out: BAW % Control (or Mortality) rating. How it is done:
(§1) Example A: Bioassays on Beet Armyworm (Spodoptera exigua, LAPHEG) (“BAW”), Corn Earworm (Helicoverpa zea, HELIZE) (“CEW”), and Cabbage Looper (Trichoplusia ni, TRIPNI) (“CL”)
(§2) Certain molecules disclosed in this document were tested against BAW, CEW, and CL using procedures described in the following examples. In the reporting of the results, the “BAW, CEW, & CL Rating Table” was used (See Table Section).
Bioassays on BAW were conducted using a 128-well diet tray assay. one to five second instar BAW larvae were placed in each well (3 mL) of the diet tray that had been previously filled with 1 mL of artificial diet to which 50 μg/cm^2 of the test molecule (dissolved in 50 μL of 90:10 acetone-water mixture) had been applied (to each of eight wells) and then allowed to dry. Trays were covered with a clear self-adhesive cover and held at 25° C., 14:10 light-dark for five to seven days. Percent mortality was recorded for the larvae in each well; activity in the eight wells was then averaged. The results are indicated in the table entitled “Table ABC: Biological Results” (See Table Section).

In data set [2] the test system is Cabbage Looper (Trichoplusia ni, TRIPNI). Description: Bioassay on Cabbage Looper (CL), 128-well diet tray assay. The note with it: 168 h, 50 μg/cm^2 on artificial diet, second instar larvae, five to seven days, 25° C., read-out: CL % Control (or Mortality) rating. The protocol:
as §1, §2
Bioassays on CL were conducted using a 128-well diet tray assay. one to five second instar CL larvae were placed in each well (3 mL) of the diet tray that had been previously filled with 1 mL of artificial diet to which 50 μg/cm^2 of the test molecule (dissolved in 50 μL of 90:10 acetone-water mixture) had been applied (to each of eight wells) and then allowed to dry. Trays were covered with a clear self-adhesive cover and held at 25° C., 14:10 light-dark for five to seven days. Percent mortality was recorded for the larvae in each well; activity in the eight wells was then averaged. The results are indicated in the table entitled “Table ABC: Biological Results” (See Table Section).

For data set [3], the system named is Corn Earworm (Helicoverpa zea, HELIZE). Description: Bioassay on Corn Earworm (CEW), 128-well diet tray assay. Conditions: 168 h, 50 μg/cm^2 on artificial diet, second instar larvae, five to seven days, 25° C., read-out: CEW % Control (or Mortality) rating. The protocol: as §1, §2
Bioassays on CEW were conducted using a 128-well diet tray assay. one to five second instar CEW larvae were placed in each well (3 mL) of the diet tray that had been previously filled with 1 mL of artificial diet to which 50 μg/cm^2 of the test molecule (dissolved in 50 μL of 90:10 acetone-water mixture) had been applied (to each of eight wells) and then allowed to dry. Trays were covered with a clear self-adhesive cover, and held at 25° C., 14:10 light-dark for five to seven days. Percent mortality was recorded for the larvae in each well; activity in the eight wells was then averaged. The results are indicated in the table entitled “Table ABC: Biological Results” (See Table Section).

For data set [4], the system named is Yellow Fever Mosquito (Aedes aegypti, AEDSAE). Description: Bioassay on Yellow Fever Mosquito (YFM) larvae, 96-well plate. The note with it: about 1 day-old larvae, 4000 ppm DMSO master plate diluted, graded after 3 days. How it is done:
Example C: Bioassays on Yellow Fever Mosquito (Aedes aegypti, AEDSAE) (“YFM”)
Certain molecules disclosed in this document were tested against YFM using procedures described in the following paragraph. In the reporting of the results, the “YFM Rating Table” was used (See Table Section).
Master plates containing 400 μg of a molecule dissolved in 100 μL of dimethyl sulfoxide (DMSO) (equivalent to a 4000 ppm solution) are used. A master plate of assembled molecules contains 15 μL per well. To this plate, 135 μL of a 90:10 water:acetone mixture is added to each well. A robot (Biomek® NXP Laboratory Automation Workstation) is programmed to dispense 15 μL aspirations from the master plate into an empty 96-well shallow plate (“daughter” plate). There are 6 reps (“daughter” plates) created per master. The created daughter plates are then immediately infested with YFM larvae.
The day before plates are to be treated, mosquito eggs are placed in Millipore water containing liver powder to begin hatching (4 g. into 400 mL). After the daughter plates are created using the robot, they are infested with 220 μL of the liver powder/larval mosquito mixture (about 1 day-old larvae). After plates are infested with mosquito larvae, a non-evaporative lid is used to cover the plate to reduce drying. Plates are held at room temperature for 3 days prior to grading. After 3 days, each well is observed and scored based on mortality. The results are indicated in the table entitled “Table ABC: Biological Results” (See Table Section).

A word on the mortality: it is the share of the test organisms that died. In the case of `O=C(Nc1ccc(-c2ncn(-c3ccc(OC(F)(F)F)cc3)n2)cc1)Nc1nccn1-c1ccccn1` [F31, 1-(1-(Pyridin-2-yl)-1H-imidazol-2-yl)-3-(4-(1-(4-(trifluoromethoxy)phenyl)-1H-1,2,4-triazol-3-yl)phenyl)urea], the mortality at 50 µg/cm2 in data set [1], in data set [2] and in data set [3] was 50 to 100% throughout.

For `CCc1cccc(-n2ccnc2NC(=O)Nc2ccc(-c3ncn(-c4ccc(OC(F)(F)F)cc4)n3)cc2)c1` [F26, 1-(1-(3-Ethylphenyl)-1H-imidazol-2-yl)-3-(4-(1-(4-(trifluoromethoxy)phenyl)-1H-1,2,4-triazol-3-yl)phenyl)urea], the mortality at 50 µg/cm2 in data set [1], in data set [2] and in data set [3] was 50 to 100% throughout.

As to `Cc1ccc(-n2ccnc2NC(=O)Nc2ccc(-c3ncn(-c4ccc(OC(F)(F)F)cc4)n3)cc2)cc1` [F29, 1-(1-(p-Tolyl)-1H-imidazol-2-yl)-3-(4-(1-(4-(trifluoromethoxy)phenyl)-1H-1,2,4-triazol-3-yl)phenyl)urea], the mortality at 50 µg/cm2 in data set [1], in data set [2] and in data set [3] was 50 to 100% in each case.

With `Cc1ccccc1-n1ccnc1NC(=O)Nc1ccc(-c2ncn(-c3ccc(OC(F)(F)F)cc3)n2)cc1` [F21, 1-(1-(o-Tolyl)-1H-imidazol-2-yl)-3-(4-(1-(4-(trifluoromethoxy)phenyl)-1H-1,2,4-triazol-3-yl)phenyl)urea], the mortality at 50 µg/cm2 in data set [1], in data set [2] and in data set [3] was 50 to 100% throughout.

In the case of `O=C(NCCc1ccc(-c2ncn(-c3ccc(OC(F)(F)F)cc3)n2)cc1)Nc1ncc(-c2ccccc2)o1` [F52, 1-(5-phenyloxazol-2-yl)-3-(4-(1-(4-(trifluoromethoxy)phenyl)-1H-1,2,4-triazol-3-yl)phenethyl)urea], the results for the mortality at 50 µg/cm2 in data set [1], in data set [2] and in data set [3] were 50 to 100%, 50 to 100% and 0%, respectively.

For the compound `CC(C)c1ccccc1-n1ccnc1NC(=O)Nc1ccc(-c2ncn(-c3ccc(OC(F)(F)F)cc3)n2)cc1` [F22, 1-(1-(2-Isopropylphenyl)-1H-imidazol-2-yl)-3-(4-(1-(4-(trifluoromethoxy)phenyl)-1H-1,2,4-triazol-3-yl)phenyl)urea], the mortality at 50 µg/cm2 in data set [1], in data set [2] and in data set [3] was 50 to 100% throughout.

Consider `O=C(Nc1ccc(-c2ncn(-c3ccc(OC(F)(F)F)cc3)n2)cc1)Nc1nccn1-c1cccc(Cl)c1` [F27, 1-(1-(3-Chlorophenyl)-1H-imidazol-2-yl)-3-(4-(1-(4-(trifluoromethoxy)phenyl)-1H-1,2,4-triazol-3-yl)phenyl)urea], for which the mortality at 50 µg/cm2 in data set [1], in data set [2] and in data set [3] was 50 to 100% in each case.

As to `O=C(Nc1ccc(-c2ncn(-c3ccc(OC(F)(F)F)cc3)n2)cc1)Nc1nccn1-c1ccncc1` [F33, 1-(1-(Pyridin-4-yl)-1H-imidazol-2-yl)-3-(4-(1-(4-(trifluoromethoxy)phenyl)-1H-1,2,4-triazol-3-yl)phenyl)urea], the mortality at 50 µg/cm2 in data set [1], in data set [2] and in data set [3] was 50 to 100% throughout.

Turning to `CCc1ccccc1-c1ncsc1NC(=O)NCCc1ccc(-c2ncn(-c3ccc(OC(F)(F)F)cc3)n2)cc1` [F61, 1-(4-(2-ethylphenyl)thiazol-5-yl)-3-(4-(1-(4-(trifluoromethoxy)phenyl)-1H-1,2,4-triazol-3-yl)phenethyl)urea], the mortality at 50 µg/cm2 in data set [1] was 0%; in data set [2], 50 to 100%. Besides, the “YFM % Control (or Mortality) rating” value in data set [4] was “A (80-100)”.

With `Cn1oc(NC(=O)NCCc2ccc(-c3ncn(-c4ccc(OC(F)(F)F)cc4)n3)cc2)c(-c2c(Cl)cccc2Cl)c1=O` [F60, 1-(4-(2,6-Dichlorophenyl)-2-methyl-3-oxo-2,3-dihydroisoxazol-5-yl)-3-(4-(1-(4-(trifluoromethoxy)phenyl)-1H-1,2,4-triazol-3-yl)phenethyl)urea], the mortality at 50 µg/cm2 in data set [1] and in data set [2] was 50 to 100% throughout. Moreover, the “YFM % Control (or Mortality) rating” value in data set [4] is recorded as “A (80-100)”.

For `COc1cccc(-n2ccnc2NC(=O)Nc2ccc(-c3ncn(-c4ccc(OC(F)(F)F)cc4)n3)cc2)c1` [F23, 1-(1-(3-Methoxyphenyl)-1H-imidazol-2-yl)-3-(4-(1-(4-(trifluoromethoxy)phenyl)-1H-1,2,4-triazol-3-yl)phenyl)urea], the mortality at 50 µg/cm2 in data set [1], in data set [2] and in data set [3] was 50 to 100% each time.

Turning to `CCOC(=O)c1cnn(-c2ccc(Cl)cc2C)c1NC(=O)Nc1ccc(-c2ncn(-c3ccc(OC(F)(F)F)cc3)n2)cc1` [F2, Ethyl 1-(4-chloro-2-methylphenyl)-5-(3-(4-(1-(4-(trifluoromethoxy)phenyl)-1H-1,2,4-triazol-3-yl)phenyl)ureido)-1H-pyrazole-4-carboxylate], the mortality at 50 µg/cm2 in data set [1] and in data set [2] was 0% each time. Also, in data set [4], the “YFM % Control (or Mortality) rating” value was “D (No activity noticed in this bioassay)”.

For `CC(C)c1ccccc1-c1c(NC(=O)NCCc2ccc(-c3ncn(-c4ccc(OC(F)(F)F)cc4)n3)cc2)on(C)c1=O` [F58, 1-(4-(2-Isopropylphenyl)-2-methyl-3-oxo-2,3-dihydroisoxazol-5-yl)-3-(4-(1-(4-(trifluoromethoxy)phenyl)-1H-1,2,4-triazol-3-yl)phenethyl)urea], the mortality at 50 µg/cm2 in data set [1] and in data set [2] was 50 to 100% throughout. Further, in data set [4], the “YFM % Control (or Mortality) rating” value is recorded as “A (80-100)”.

For `O=C(Nc1ccc(-c2ncn(-c3ccc(OC(F)(F)F)cc3)n2)cc1)Nc1ccnn1-c1ccccc1` [F10, 1-(1-Phenyl-1H-pyrazol-5-yl)-3-(4-(1-(4-(trifluoromethoxy)phenyl)-1H-1,2,4-triazol-3-yl)phenyl)urea], the mortality at 50 µg/cm2 in data set [1] and in data set [2] was 50 to 100% in each case. The “YFM % Control (or Mortality) rating” value in data set [4] is listed as “D (No activity noticed in this bioassay)”.

For `O=C(NCCc1ccc(-c2ncn(-c3ccc(OC(F)(F)F)cc3)n2)cc1)NC1=C(c2c(Cl)cccc2Cl)C(=O)CO1` [F54, 1-(3-(2,6-Dichlorophenyl)-4-oxo-4,5-dihydrofuran-2-yl)-3-(4-(1-(4-(trifluoromethoxy)phenyl)-1H-1,2,4-triazol-3-yl)phenethyl)urea], the mortality at 50 µg/cm2 in data set [1] and in data set [2] was 0% in each case. The “YFM % Control (or Mortality) rating” value in data set [4] is “A (80-100)”.

Regarding `Cc1cccc(C)c1C1=C(NC(=O)NCCc2ccc(-c3ncn(-c4ccc(OC(F)(F)F)cc4)n3)cc2)OCC1=O` [F55, 1-(3-(2,6-Dimethylphenyl)-4-oxo-4,5-dihydrofuran-2-yl)-3-(4-(1-(4-(trifluoromethoxy)phenyl)-1H-1,2,4-triazol-3-yl)phenethyl)urea], the mortality at 50 µg/cm2 was 50 to 100% in data set [1] and 0% in data set [2]. The “YFM % Control (or Mortality) rating” value in data set [4] is reported as “A (80-100)”.

For the origin of these results see patent publication US10212936B2, “Molecules having pesticidal utility, and intermediates, compositions, and processes, related thereto” (priority 2014, dated 2019).
